Tests used:
[1] = target: GCN2 (Homo sapiens, UniProt Q9P2K8); test: GCN2 enzyme assay; assay type: biochemical
[2] = target: T1, SYK (Homo sapiens, UniProt P43405); test: SYK flash plate assay (enzyme assay); assay type: biochemical
T1 construct: 2.5 nM SYK, 400 nM Biotin-Aha-Aha-KEDPDYEWPSAKK
How it was run: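 Radiometric Flashplate format: biotinylated peptide substrate (400 nM) and 33P-labelled ATP (10 μM) react with 2.5 nM enzyme for 1 hour at 30 °C in Hepes buffer, pH 7.5. After EDTA quench and washing, counts are taken; staurosporine defines non-specific signal, and IC50 values are derived.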

Sequence of GCN2 (Q9P2K8 whole entry): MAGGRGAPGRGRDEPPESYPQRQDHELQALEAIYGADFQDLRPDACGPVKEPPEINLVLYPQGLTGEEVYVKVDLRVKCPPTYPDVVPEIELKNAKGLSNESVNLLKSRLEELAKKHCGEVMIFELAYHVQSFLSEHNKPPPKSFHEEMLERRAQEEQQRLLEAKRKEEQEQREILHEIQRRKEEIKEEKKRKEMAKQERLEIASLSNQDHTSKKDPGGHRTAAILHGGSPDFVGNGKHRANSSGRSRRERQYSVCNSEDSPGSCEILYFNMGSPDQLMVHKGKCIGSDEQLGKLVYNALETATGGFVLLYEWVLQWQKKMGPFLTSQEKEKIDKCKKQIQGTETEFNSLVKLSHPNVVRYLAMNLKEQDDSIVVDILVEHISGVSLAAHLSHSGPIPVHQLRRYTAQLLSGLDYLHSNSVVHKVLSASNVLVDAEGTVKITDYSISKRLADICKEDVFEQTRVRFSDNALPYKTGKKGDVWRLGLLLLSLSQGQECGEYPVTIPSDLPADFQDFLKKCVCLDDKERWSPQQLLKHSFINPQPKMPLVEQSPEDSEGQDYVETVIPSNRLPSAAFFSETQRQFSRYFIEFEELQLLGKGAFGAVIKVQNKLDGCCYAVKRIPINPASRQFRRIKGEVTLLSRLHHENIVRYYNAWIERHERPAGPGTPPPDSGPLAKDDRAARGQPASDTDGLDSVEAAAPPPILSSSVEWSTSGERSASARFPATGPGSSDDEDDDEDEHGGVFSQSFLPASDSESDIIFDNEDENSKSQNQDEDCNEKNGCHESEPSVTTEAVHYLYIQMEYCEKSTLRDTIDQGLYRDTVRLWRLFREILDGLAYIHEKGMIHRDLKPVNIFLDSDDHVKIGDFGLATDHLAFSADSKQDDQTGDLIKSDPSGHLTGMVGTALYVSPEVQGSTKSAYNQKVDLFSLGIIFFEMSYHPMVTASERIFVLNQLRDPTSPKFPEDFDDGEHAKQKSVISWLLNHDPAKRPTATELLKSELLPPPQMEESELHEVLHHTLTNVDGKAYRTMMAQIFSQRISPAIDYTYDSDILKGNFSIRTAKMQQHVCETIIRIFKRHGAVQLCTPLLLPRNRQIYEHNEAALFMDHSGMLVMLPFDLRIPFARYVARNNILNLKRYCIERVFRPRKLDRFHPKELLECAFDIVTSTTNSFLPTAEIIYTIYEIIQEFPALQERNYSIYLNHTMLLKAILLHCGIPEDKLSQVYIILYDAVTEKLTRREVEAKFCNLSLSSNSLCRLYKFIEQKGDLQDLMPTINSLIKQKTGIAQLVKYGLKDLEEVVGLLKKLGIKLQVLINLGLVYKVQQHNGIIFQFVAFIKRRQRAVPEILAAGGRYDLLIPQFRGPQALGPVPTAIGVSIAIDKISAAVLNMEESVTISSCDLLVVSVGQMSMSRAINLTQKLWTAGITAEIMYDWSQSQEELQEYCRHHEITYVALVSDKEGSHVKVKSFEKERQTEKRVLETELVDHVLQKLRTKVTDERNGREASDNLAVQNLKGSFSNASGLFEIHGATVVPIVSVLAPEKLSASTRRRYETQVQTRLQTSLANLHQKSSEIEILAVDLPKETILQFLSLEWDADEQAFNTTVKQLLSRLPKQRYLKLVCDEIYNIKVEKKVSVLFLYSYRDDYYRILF

| IC50 [1] [nM] | IC50 [2] [nM] | SMILES |
| --- | --- | --- |
| 3000 to 50000 | 300 to 3000 | COc1cc(Nc2nc3c(N4CCNC(=O)C4)nccn3n2)cc(OC)c1 [C43, 4-[2-(3,5-dimethoxy-phenylamino)-[1,2,4]triazolo[1,5-a]pyrazin-8-yl]-piperazin-2-one] |
| 300 to 3000 | 300 to 3000 | Cc1nc2cc(Nc3nc4c(-c5ccc(S(C)(=O)=O)cc5)nccn4n3)ccc2[nH]1 [C58, [8-(4-methanesulfonyl-phenyl)-[1,2,4]triazolo[1,5-a]pyrazin-2-yl]-(2-methyl-1H-benzoimidazol-5-yl)-amine] |
| 300 to 3000 | 100 to 300 | Cn1cc(-c2nccn3nc(Nc4ccc(C5(C#N)CC5)cc4)nc23)cn1 [C63, 1-{4-[8-(1-methyl-1H-pyrazol-4-yl)-[1,2,4]triazolo[1,5-a]pyrazin-2-ylamino]-phenyl}-cyclopropanecarbonitrile] |
| 300 to 3000 | < 100 | CC1(C)C(=O)Nc2cc(Nc3nc4c(-c5cn[nH]c5)nccn4n3)ccc21 [C67, 3,3-dimethyl-6-[8-(1H-pyrazol-4-yl)-[1,2,4]triazolo[1,5-a]pyrazin-2-ylamino]-1,3-dihydro-indol-2-one] |
| 300 to 3000 | < 100 | Cn1cc(-c2nccn3nc(Nc4ccc5c(C(C)(O)C(F)(F)F)c[nH]c5c4)nc23)cn1 (stereo not shown) [C113, 1,1,1-trifluoro-2-{6-[8-(1-methyl-1H-pyrazol-4-yl)-[1,2,4]triazolo[1,5-a]pyrazin-2-ylamino]-1H-indol-3-yl}-propan-2-ol] |
| 300 to 3000 | 300 to 3000 | Cn1cc(-c2nccn3nc(Nc4ccc(C#N)c(O)c4)nc23)cn1 [C36, 2-Hydroxy-4-[8-(1-methyl-1H-pyrazol-4-yl)-[1,2,4]triazolo[1,5-a]pyrazin-2-ylamino]-benzonitrile] |
| 300 to 3000 | 300 to 3000 | Cn1cc(-c2nccn3nc(Nc4ccc5nnn(C)c5c4)nc23)cn1 [C30, (3-Methyl-3H-benzotriazol-5-yl)-[8-(1-methyl-1H-pyrazol-4-yl)-[1,2,4]triazolo[1,5-a]pyrazin-2-yl]-amine] |
| 3000 to 50000 | 100 to 300 | N#CC1(c2ccc(Nc3nc4c(-c5cn[nH]c5)nccn4n3)cc2)CC1 [C65, 1-{4-[8-(1H-pyrazol-4-yl)-[1,2,4]triazolo[1,5-a]pyrazin-2-ylamino]-phenyl}-cyclopropanecarbonitrile] |
